Experiments:
prickly sida [1] = experiment: Test Example 1: foliage treatment, upland pot test; type: in vivo, Sida spinosa L.; details: active ingredient 500 g/ha, observed 18th to 23rd day, 0 = non-treated, 100 = complete kill
green foxtail [2] = experiment: Test Example 2: soil surface treatment, upland pot test; type: in vivo, Setaria viridis L.; details: active ingredient 500 g/ha, observed 20th to 28th day
Outline: (§1)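 Pots (1/170,000 ha) filled with upland field soil were seeded, then treated on the following day by spraying the soil surface with diluted formulation (1,500 L/ha) at a fixed a.i. dose. Control was rated visually on a 0–100% scale at 20–28 days.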

rice [3] = experiment: Test Example 1: foliage treatment, upland pot test; type: in vivo, Oryza sativa L.; details: crop, active ingredient 500 g/ha, observed 18th to 23rd day, 0 = non-treated, 100 = complete kill
Outline: (§2)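 Visual growth-control score, 0% (like untreated) to 100% (complete kill), taken on days 18 to 23 after foliar spraying. Leaf stage at treatment: barnyardgrass 1.3–2.8, rice 1.2–2.6, wheat 1.3–2.4, soybean 0.1–0.4. Spray: wettable powder or EC in 500 L/ha water, 0.1% v/v spreader added.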

soybean [4] = experiment: Test Example 1: foliage treatment, upland pot test; type: in vivo, Glycine max Merr.; details: crop, active ingredient 500 g/ha, observed 18th to 23rd day, 0 = non-treated, 100 = complete kill
Outline: as §2

crabgrass [5] = experiment: Test Example 2: soil surface treatment, upland pot test; type: in vivo, Digitaria sanguinalis L.; details: active ingredient 500 g/ha, observed 20th to 28th day
Outline: as §1

prickly sida [6] = experiment: as above; type: in vivo, Sida spinosa L.; details: active ingredient 500 g/ha, observed 20th to 28th day
Outline: as §1

japanese bulrush = experiment: Test Example 3: paddy pot test, application under submerged conditions; type: in vivo, Scirpus juncoides; details: active ingredient 250 g/ha; submerged application at 0.5 leaf stage; visually observed 14 days after application; 0 = non-treated, 100 = complete kill
Outline: (§3)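 Barnyardgrass and japanese bulrush sown in flooded paddy soil in greenhouse pots, japanese ribbon wapato tubers planted 1–2 days later; water depth kept at 3–4 cm. Diluted wettable powder or emulsifiable concentrate applied into water at 0.5-leaf or primary-leaf stage at set active-ingredient doses. Growth control scored visually at 14 days, 0 (untreated) to 100% (complete kill).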

corn [7] = experiment: Test Example 1: foliage treatment, upland pot test; type: in vivo, Zea mays L.; details: crop, active ingredient 500 g/ha, observed 18th to 23rd day, 0 = non-treated, 100 = complete kill
Outline: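 Corn seeds were sown in upland field soil held in a 1/170,000 ha pot and grown to the 2.1 to 3.2 leaf stage. A wettable powder or emulsifiable concentrate of the test compound was diluted with water at 500 L/ha, given 0.1% (v/v) agricultural spreader, and sprayed onto the foliage with a small sprayer. Growth controlling degree (%) was scored visually 18th to 23rd days later, from 0 (non-treated) to 100 (complete kill).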

redroot pigweed [8] = experiment: Test Example 1: foliage treatment, upland pot test; type: in vivo, Amaranthus retroflexus L.; details: active ingredient 500 g/ha, observed 18th to 23rd day, 0 = non-treated, 100 = complete kill
soybean [9] = experiment: Test Example 2: soil surface treatment, upland pot test; type: in vivo, Glycine max Merr.; details: active ingredient 500 g/ha, observed 20th to 28th day
Outline: as §1

barnyardgrass [10] = experiment: Test Example 1: foliage treatment, upland pot test; type: in vivo, Echinochloa crus-galli L.; details: active ingredient 500 g/ha, observed 18th to 23rd day, 0 = non-treated, 100 = complete kill
Outline: as §2

crabgrass [11] = experiment: Test Example 1: foliage treatment, upland pot test; type: in vivo, Digitaria sanguinalis L.; details: active ingredient 500 g/ha, observed 18th to 23rd day, 0 = non-treated, 100 = complete kill
corn [12] = experiment: Test Example 2: soil surface treatment, upland pot test; type: in vivo, Zea mays L.; details: active ingredient 500 g/ha, observed 20th to 28th day
Outline: as §1

velvetleaf [13] = experiment: Test Example 1: foliage treatment, upland pot test; type: in vivo, Abutilon theophrasti MEDIC.; details: active ingredient 500 g/ha, observed 18th to 23rd day, 0 = non-treated, 100 = complete kill
barnyardgrass [14] = experiment: Test Example 3: paddy pot test, application under submerged conditions; type: in vivo, Echinochloa crus-galli L.; details: active ingredient 250 g/ha; submerged application at 0.5 leaf stage; visually observed 14 days after application; 0 = non-treated, 100 = complete kill
Outline: as §3

wheat [15] = experiment: Test Example 1: foliage treatment, upland pot test; type: in vivo, Triticum spp.; details: crop, active ingredient 500 g/ha, observed 18th to 23rd day, 0 = non-treated, 100 = complete kill
Text: Upland field soil was put into a 1/170,000 ha pot, and seed of various plants were sown. Then, when the plants reached predetermined leaf stages ((1) barnyardgrass: 1.3 to 2.8 leaf stages, (2) crabgrass: 1.0 to 2.8 leaf stages, (3) green foxtail: 1.3 to 2.6 leaf stages, (4) redroot pigweed: 0.1 to 1.2 leaf stages, (5) prickly sida: 0.1 to 1.2 leaf stages, (6) velvetleaf: 0.1 to 1.2 leaf stages, (7) tall morningglory: 0.1 to 1.5 leaf stages, (8) rice: 1.2 to 2.6 leaf stages, (9) wheat: 1.3 to 2.4 leaf stages, (10) corn, 2.1 to 3.2 leaf stages, (11) soybean: 0.1 to 0.4 leaf stage), a wettable powder or emulsifiable concentrate having the compound of the present invention formulated in accordance with a usual formulation method, was weighed so that the active ingredient would be a predetermined amount, and diluted with water in an amount of 500 L/ha. To the diluted solution, 0.1% (v/v) of agricultural spreader was added. The herbicide thus adjusted was applied by a small size sprayer for foliage treatment. On the 18th to 23rd days after the application of the herbicide, the growth of the respective plants was visually observed, and the herbicidal effects were evaluated by the growth controlling degrees (%) ranging from 0 (equivalent to the non-treated plot) to 100 (complete kill), whereby the results shown in Table 3, were obtained.

rice [16] = experiment: Test Example 2: soil surface treatment, upland pot test; type: in vivo, Oryza sativa L.; details: active ingredient 500 g/ha, observed 20th to 28th day
Outline: as §1

green foxtail [17] = experiment: Test Example 1: foliage treatment, upland pot test; type: in vivo, Setaria viridis L.; details: active ingredient 500 g/ha, observed 18th to 23rd day, 0 = non-treated, 100 = complete kill
barnyardgrass [18] = experiment: Test Example 2: soil surface treatment, upland pot test; type: in vivo, Echinochloa crus-galli L.; details: active ingredient 500 g/ha, observed 20th to 28th day
Outline: as §1

wheat [19] = experiment: as above; type: in vivo, Triticum spp.; details: active ingredient 500 g/ha, observed 20th to 28th day
Outline: as §1

redroot pigweed [20] = experiment: as above; type: in vivo, Amaranthus retroflexus L.; details: active ingredient 500 g/ha, observed 20th to 28th day
Outline: as §1

rice (var. Nihonbare) = experiment: Test Example 3: paddy pot test, transplanted rice; type: in vivo, Oryza sativa L.; details: active ingredient 250 g/ha, applied 4th day after transplantation, visually observed 21st day after application, 0 = non-treated, 100 = complete kill
Outline: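 Rice (var. Nihonbare) at 2 leaf stage transplanted 3 cm deep into puddled paddy soil under 3–4 cm flooding; on day 4 after transplanting, diluted wettable powder or emulsifiable concentrate applied by pipette under submerged conditions at a set active-ingredient dose. Growth scored visually 21 days after application, 0 (untreated) to 100 (complete kill) %.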

velvetleaf [21] = experiment: Test Example 2: soil surface treatment, upland pot test; type: in vivo, Abutilon theophrasti MEDIC.; details: active ingredient 500 g/ha, observed 20th to 28th day
Outline: as §1

Compound | Growth controlling degree (%) Prickly sida (prickly sida [1]) | Growth controlling degree (%) Green foxtail (green foxtail [2]) | Growth controlling degree (%) Rice (rice [3]) | Growth controlling degree (%) Soybean (soybean [4]) | Growth controlling degree (%) Crabgrass (crabgrass [5]) | Growth controlling degree (%) Prickly sida (prickly sida [6]) | Growth controlling degree (%) Japanese bulrush (japanese bulrush) | Growth controlling degree (%) Corn (corn [7]) | Growth controlling degree (%) Redroot pigweed (redroot pigweed [8]) | Growth controlling degree (%) Soyabean (soybean [9]) | Growth controlling degree (%) Barnyardgrass (barnyardgrass [10]) | Growth controlling degree (%) Crabgrass (crabgrass [11]) | Growth controlling degree (%) Corn (corn [12]) | Growth controlling degree (%) Velvetleaf (velvetleaf [13]) | Growth controlling degree (%) Barnyardgrass (barnyardgrass [14]) | Growth controlling degree (%) wheat (wheat [15]) | Growth controlling degree (%) Rice (rice [16]) | Growth controlling degree (%) Green foxtail (green foxtail [17]) | Growth controlling degree (%) Barnyardgrass (barnyardgrass [18]) | Growth controlling degree (%) wheat (wheat [19]) | further results
CC(C)C(c1cnccc1C(F)(F)F)N(C)S(=O)(=O)c1ccc(F)cc1 (racemic) [I-124] | 80% | 100% | 40% | 80% | 100% | 90% | 70% | 60% | 50% | 30% | 80% | 95% | 20% | 70% | 100% | 60% | 20% | 70% | 100% | 10% | Growth controlling degree (%) Redroot pigweed (redroot pigweed [20]): 60%; Growth controlling degree (%) Rice (rice (var. Nihonbare)): 0%; Growth controlling degree (%) Velvetleaf (velvetleaf [21]): 80%
CC(C)C(c1cnccc1C(F)(F)F)N(C)S(=O)(=O)c1ccc(Cl)cc1 (racemic) [I-125] | 80% | 100% | 40% | 80% | 100% | 80% | 70% | 60% | 60% | 10% | 70% | 95% | 10% | 70% | 100% | 10% | 30% | 70% | 100% | 20% | Growth controlling degree (%) Redroot pigweed (redroot pigweed [20]): 50%; Growth controlling degree (%) Rice (rice (var. Nihonbare)): 10%; Growth controlling degree (%) Velvetleaf (velvetleaf [21]): 70%
CC(C)C(c1cnccc1C(F)(F)F)N(C)S(=O)(=O)c1ccc(F)cc1F (racemic) [I-127] | 70% | 100% | 30% | 60% | 90% | 50% | 70% | 40% | 20% | 10% | 70% | 95% | 10% | 60% | 100% | 0% | 20% | 50% | 100% | 30% | Growth controlling degree (%) Redroot pigweed (redroot pigweed [20]): 60%; Growth controlling degree (%) Rice (rice (var. Nihonbare)): 0%; Growth controlling degree (%) Velvetleaf (velvetleaf [21]): 40%
